Assay results: ChEMBL document CHEMBL4765305, “Elephantopinolide A-P, germacrane-type sesquiterpene lactones from Elephantopus scaber induce apoptosis, autophagy and G2/M phase arrest in hepatocellular carcinoma cells” (Eur J Med Chem, 2020)
Activity calls are given as the source filed them. The calls are words filed in the database; no cut-off is given here.

Columns and labels:
Hep 3B2 [1] = assay: Induction ROS generation in human Hep3B cells assessed as intracellular ROS level measured after 2 hrs by H2DCF-DA probe based flow cytometry (reference value: 4.24 %); type: functional
HepG2 [2] = assay: Induction of apoptosis in human HepG2 cells assessed as late apoptotic cells at 9 uM incubated for 48 hrs by AnnexinV-FITC and propidium iodide staining based flow cytometry analysis (reference value: 2.46%); type: functional
Hep 3B2 [3] = assay: Induction of apoptosis in human Hep3B cells assessed as increase in caspase-3 activity measured after 2 hrs by microplate reader; type: functional, cell-based; conditions: dose 3-9 µM
HepG2 [4] = assay: Induction of autophagy in human HepG2 cells at 6 uM by MDC staining based flow cytometry analysis (reference value: 4.46%); type: functional
HepG2 [5] = assay: Induction of autophagy in human HepG2 cells at 9 uM by MDC staining based flow cytometry analysis (reference value: 4.46%); type: functional
Hep 3B2 [6] = assay: Induction of apoptosis in human Hep3B cells assessed as late apoptotic cells at 9 uM incubated for 48 hrs by AnnexinV-FITC and propidium iodide staining based flow cytometry analysis (reference value: 3.32%); type: functional
HepG2 [7] = assay: Induction of cell cycle arrest in human HepG2 cells assessed as accumulation at G2/M phase by PI-staining based flow cytometric analysis; type: functional
Hep 3B2 [8] = assay: Induction of cell cycle arrest in human Hep3B cells assessed as accumulation at G2/M phase by PI-staining based flow cytometric analysis; type: functional
HepG2 [9] = assay: Induction of mitochondrial membrane potential loss in human HepG2 cells measured after 48 hrs by JC-1 staining based flow cytometry analysis; type: functional, cell-based; conditions: dose 3-9 µM
HepG2 [10] = assay: Induction of apoptosis in human HepG2 cells assessed as membrane blebbing upto 9 uM incubated for 48 hrs by phase contrast microscopy; type: functional, cell-based; conditions: dose microM <=9, time 48.0 hrs
Hep 3B2 [11] = assay: Induction of apoptosis in human Hep3B cells assessed as membrane blebbing upto 9 uM incubated for 48 hrs by phase contrast microscopy; type: functional, cell-based; conditions: dose microM <=9, time 48.0 hrs
Hep 3B2 [12] = assay: Induction of apoptosis in human Hep3B cells assessed as early apoptotic cells at 9 uM incubated for 48 hrs by AnnexinV-FITC and propidium iodide staining based flow cytometry analysis (reference value: 3.05%); type: functional
Hep 3B2 [13] = assay: Induction ROS generation in human Hep3B cells assessed as intracellular ROS level measured after 30 mins by H2DCF-DA probe based flow cytometry (reference value: 4.24 %); type: functional; conditions: 0.5 h
HepG2 [14] = assay: Induction of apoptosis in human HepG2 cells assessed as early apoptotic cells at 6 uM incubated for 48 hrs by AnnexinV-FITC and propidium iodide staining based flow cytometry analysis (reference value: 2.45%); type: functional
Hep 3B2 [15] = assay: Induction of apoptosis in human Hep3B cells assessed as early apoptotic cells at 3 uM incubated for 48 hrs by AnnexinV-FITC and propidium iodide staining based flow cytometry analysis (reference value: 3.05%); type: functional
Hep 3B2 [16] = assay: Induction of apoptosis in human Hep3B cells assessed as cell shrinkage upto 9 uM incubated for 48 hrs by phase contrast microscopy; type: functional, cell-based; conditions: dose microM <=9, time 48.0 hrs
HepG2 [17] = assay: Induction ROS generation in human HepG2 cells assessed as intracellular ROS level measured after 4 hrs by H2DCF-DA probe based flow cytometry (reference value: 5.05%); type: functional
HepG2 [18] = assay: Induction ROS generation in human HepG2 cells assessed as intracellular ROS level measured after 15 mins by H2DCF-DA probe based flow cytometry (reference value: 5.05%); type: functional; conditions: 0.25 h
Hep 3B2 [19] = assay: Induction of apoptosis in human Hep3B cells assessed as late apoptotic cells at 6 uM incubated for 48 hrs by AnnexinV-FITC and propidium iodide staining based flow cytometry analysis (reference value: 3.32%); type: functional
HepG2 [20] = assay: Induction of apoptosis in human HepG2 cells assessed as decrease in Bcl-2 level measured by western blot analysis; type: functional, cell-based; conditions: dose 3-9 µM
Hep 3B2 [21] = assay: Induction ROS generation in human Hep3B cells assessed as intracellular ROS level measured after 4 hrs by H2DCF-DA probe based flow cytometry (reference value: 4.24 %); type: functional
HepG2 [22] = assay: Activation of p-38 phosphorylation in human HepG2 cells by Western blot analysis; type: cell-based; conditions: filed as activator, dose 3-9 µM
HepG2 [23] = assay: Induction ROS generation in human HepG2 cells assessed as intracellular ROS level measured after 2 hrs by H2DCF-DA probe based flow cytometry (reference value: 5.05%); type: functional
HepG2 [24] = assay: Activation of ERK phosphorylation in human HepG2 cells by Western blot analysis; type: cell-based; conditions: filed as activator, dose 3-9 µM
HepG2 [25] = assay: Activation of JNK phosphorylation in human HepG2 cells by Western blot analysis; type: cell-based; conditions: filed as activator, dose 3-9 µM
HepG2 [26] = assay: Induction of apoptosis in human HepG2 cells assessed as late apoptotic cells at 3 uM incubated for 48 hrs by AnnexinV-FITC and propidium iodide staining based flow cytometry analysis (reference value: 2.46%); type: functional
Hep 3B2 [27] = assay: Induction of mitochondrial membrane potential loss in human Hep3B cells measured after 48 hrs by JC-1 staining based flow cytometry analysis; type: functional, cell-based; conditions: dose 3-9 µM
HepG2 [28] = assay: Induction of apoptosis in human HepG2 cells assessed as increase in caspase-3 activity measured after 2 hrs by microplate reader; type: functional, cell-based; conditions: dose 3-9 µM
HepG2 [29] = assay: Induction of apoptosis in human HepG2 cells assessed as cell shrinkage upto 9 uM incubated for 48 hrs by phase contrast microscopy; type: functional, cell-based; conditions: dose microM <=9, time 48.0 hrs
Hep 3B2 [30] = assay: Induction of apoptosis in human Hep3B cells assessed as early apoptotic cells at 6 uM incubated for 48 hrs by AnnexinV-FITC and propidium iodide staining based flow cytometry analysis (reference value: 3.05%); type: functional
Hep 3B2 [31] = assay: Anti-hepatoma activity against human Hep3B cells assessed as cell growth inhibition by MTT assay; type: functional, cell-based
HepG2 [32] = assay: Induction of apoptosis in human HepG2 cells assessed as nuclear condensation at 3 to 9 uM incubated for 48 hrs by Hoechst 33258 staining based fluorescence microscopy analysis; type: functional, cell-based; conditions: dose 3-9 µM
Hep 3B2 [33] = assay: Induction of autophagy in human Hep3B cells at 6 uM by MDC staining based flow cytometry analysis (reference value: 3.52%); type: functional
Hep 3B2 [34] = assay: Induction ROS generation in human Hep3B cells assessed as intracellular ROS level measured after 1 hrs by H2DCF-DA probe based flow cytometry (reference value: 4.24 %); type: functional
HepG2 [35] = assay: Induction of apoptosis in human HepG2 cells assessed as increase in FADD level measured by western blot analysis; type: functional, cell-based; conditions: dose 3-9 µM
Hep 3B2 [36] = assay: Induction of apoptosis in human Hep3B cells assessed as nuclear condensation at 3 to 9 uM incubated for 48 hrs by Hoechst 33258 staining based fluorescence microscopy analysis; type: functional, cell-based; conditions: dose 3-9 µM
HepG2 [37] = assay: Induction of autophagy in human HepG2 cells at 3 uM by MDC staining based flow cytometry analysis (reference value: 4.46%); type: functional
HepG2 [38] = assay: Induction of apoptosis in human HepG2 cells assessed as early apoptotic cells at 9 uM incubated for 48 hrs by AnnexinV-FITC and propidium iodide staining based flow cytometry analysis (reference value: 2.45%); type: functional
Hep 3B2 [39] = assay: Induction of autophagy in human Hep3B cells at 3 uM by MDC staining based flow cytometry analysis (reference value: 3.52%); type: functional
HepG2 [40] = assay: Induction of apoptosis in human HepG2 cells assessed as late apoptotic cells at 6 uM incubated for 48 hrs by AnnexinV-FITC and propidium iodide staining based flow cytometry analysis (reference value: 2.46%); type: functional

C=C(C)C(=O)O[C@H]1CC2=C[C@@H](C[C@@]3(C)O[C@H]3[C@H]3OC(=O)C(=C)[C@@H]31)OC2=O
Activity (Hep 3B2 [1]): 7.42%
Activity (HepG2 [2]): 29.1%
Activity (Hep 3B2 [3]): Dose-dependent effect
Activity (HepG2 [4]): 28.2%
Activity (HepG2 [5]): 65.9%
Activity (Hep 3B2 [6]): 31.9%
Activity (HepG2 [7]): Active
Activity (Hep 3B2 [8]): Active
Activity (HepG2 [9]): Dose-dependent effect
Activity (HepG2 [10]): Active
Activity (Hep 3B2 [11]): Active
Activity (Hep 3B2 [12]): 15.5%
Activity (Hep 3B2 [13]): 22.8%
Activity (HepG2 [14]): 33.7%
Activity (Hep 3B2 [15]): 5.14%
Activity (Hep 3B2 [16]): Active
Activity (HepG2 [17]): 6.58%
Activity (HepG2 [18]): 19.9%
Activity (Hep 3B2 [19]): 11.9%
Activity (HepG2 [20]): Dose-dependent effect
Activity (Hep 3B2 [21]): 5.04%
Activity (HepG2 [22]): Dose-dependent effect
Activity (HepG2 [23]): 13.1%
Activity (HepG2 [24]): Dose-dependent effect
Activity (HepG2 [25]): Dose-dependent effect
Activity (HepG2 [26]): 4.56%
Activity (Hep 3B2 [27]): Dose-dependent effect
Activity (HepG2 [28]): Dose-dependent effect
Activity (HepG2 [29]): Active
Activity (Hep 3B2 [30]): 18.2%
IC50 (Hep 3B2 [31]): 1980 nM
Activity (HepG2 [32]): Active
Activity (Hep 3B2 [33]): 39.2%
Activity (Hep 3B2 [34]): 9.85%
Activity (HepG2 [35]): Dose-dependent effect
Activity (Hep 3B2 [36]): Active
Activity (HepG2 [37]): 9.52%
Activity (HepG2 [38]): 37.8%
Activity (Hep 3B2 [39]): 15.7%
Activity (HepG2 [40]): 13.2%
